# Assay results from patent publication US20090099192A1, “Substituted 1H-pyrrole-2,5-diones” (Bayer CropScience AG, priority 2004, published 2009).
# Tests used:
# [1] = logP determination by HPLC on reversed-phase column (C 18), EEC Directive 79/831 Annex V.A8; assay type: physicochemical; details: reversed-phase C 18, 43° C., acid range (0.1% aqueous phosphoric acid, acetonitrile), marked a)
# In short: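 Reversed-phase C18 HPLC at 43° C, per EEC Directive 79/831 Annex V.A8, acid range: 0.1% aqueous phosphoric acid with linear 10–90% acetonitrile gradient. logP derived from retention time by linear interpolation between calibrating unbranched alkan-2-ones (C3–C16) of known logP.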
# [2] = tested on: caterpillars of the army worm (Spodoptera frugiperda); assay: Spodoptera frugiperda test (cabbage leaves dipped); assay type: in vivo; details: for Kill rate in % after 7 d: 500 ppm, leaf dip, Brassica oleracea
# Method: (§1) [table] To produce a suitable preparation of active compound, 1 part by weight of active compound is mixed with the stated amount of solvent and the stated amount of emulsifier, and the concentrate is diluted with emulsifier-containing water to the desired concentration. Cabbage leaves (Brassica oleracea) are treated by being dipped into the active compound preparation of the desired concentration and populated with caterpillars of the army worm (Spodoptera frugiperda) while the leaves are still moist. After the desired period of time, the kill in % is determined. 100% means that all caterpillars have been killed; 0% means that none of the caterpillars have been killed.
# [3] = tested on: green peach aphid (Myzus persicae); assay: Myzus test (spray treatment, Brassica pekinensis); assay type: in vivo; details: for Kill rate in % after 5 d: 500 g/ha, spray, Brassica pekinensis disks
# Method: (§2) [table] To produce a suitable preparation of active compound, 1 part by weight of active compound is mixed with the stated amounts of solvents and emulsifier, and the concentrate is diluted with emulsifier-containing water to the desired concentration. Disks of Chinese cabbage (Brassica pekinensis) which are infested by all stages of the green peach aphid (Myzus persicae) are sprayed with an active compound preparation of the desired concentration. After the desired period of time, the effect in % is determined. 100% means that all aphids have been killed; 0% means that none of the aphids have been killed.
# [4] = tested on: larvae of the mustard beetle (Phaedon cochleariae); assay: Phaedon test (spray treatment); assay type: in vivo; details: for Kill rate in % after 7 d: 500 g/ha, spray, Brassica pekinensis disks
# Method: (§3) [table] To produce a suitable preparation of active compound, 1 part by weight of active compound is mixed with the stated amounts of solvents and emulsifier, and the concentrate is diluted with emulsifier-containing water to the desired concentration. Disks of Chinese cabbage (Brassica pekinensis) are sprayed with an active compound preparation of the desired concentration and, after drying, populated with larvae of the mustard beetle (Phaedon cochleariae). After the desired period of time, the effect in % is determined. 100% means that all beetle larvae have been killed; 0% means that none of the beetle larvae have been killed.
# [5] = tested on: caterpillars of the army worm (Spodoptera frugiperda); assay: Spodoptera frugiperda test (corn leaf disks sprayed); assay type: in vivo; details: for Kill rate in % after 7 d: 500 g/ha, spray, Zea mays leaf disks
# Method: as §3, with “corn leaves (Zea mays)” for “Chinese cabbage (Brassica pekinensis)”, “caterpillars” for “larvae”, “army worm (Spodoptera frugiperda).” for “mustard beetle (Phaedon cochleariae).”, “caterpillars” for “beetle larvae”
# [6] = tested on: green peach aphid (Myzus persicae); assay: Myzus test - oral; assay type: in vivo; details: for Kill rate in % after 6 d: 100 ppm, oral (sucking)
# Method: as §2, with “solvent,” for “solvents and emulsifier,”, “with” for “with emulsifier-containing”, “Vessels” for “Disks of Chinese cabbage (Brassica pekinensis) which”, “populated with” for “infested by”, “persicae), which” for “persicae)”, “treated by sucking on the” for “sprayed with an”
# [7] = tested on: larvae of the mustard beetle (Phaedon cochleariae); assay: Phaedon larvae test (cabbage leaves dipped); assay type: in vivo; details: for Kill rate in % after 7 d: leaf dip, Brassica oleracea
# Method: as §1, with “with” for “with emulsifier-containing”, “with larvae” for “with caterpillars”, “the mustard beetle (Phaedon cochleariae)” for “the army worm (Spodoptera frugiperda)”, “all beetle larvae” for “all caterpillars”, “the beetle larvae” for “the caterpillars”
# [8] = tested on: common spidermite (Tetranychus urticae); assay: Tetranychus test; assay type: in vivo; details: for Kill rate in % after 5 d: 500 ppm, spray, Phaseolus vulgaris disks
# Method: To produce a suitable preparation of active compound, 1 part by weight of active compound is mixed with the stated amounts of solvent and emulsifier, and the concentrate is diluted with emulsifier-containing water to the desired concentration.
# Disks of beans (Phaseolus vulgaris), which are infested by all stages of the common spidermite (Tetranychus urticae) are sprayed with an active compound preparation of the desired concentration.
# After the desired period of time, the effect in % is determined. 100% means that all spidermites have been killed; 0% means that none of the spidermites have been killed.
compound,measurement,setting,value
O=C1C(O)=C(c2ccc(C(F)(F)F)cc2)C(=O)N1c1ccc(C(F)(F)F)cc1 [Example 13],logP,[1],logP = 3.51^a)
same,activity in the Spodoptera frugiperda test (leaf dip),[2],good activity
same,Kill rate in % after 7 d,[2],100%
O=C1C(O)=C(c2ccccc2C(F)(F)F)C(=O)N1C1CCCC(C(F)(F)F)C1 (stereo not shown) [Example 217],"activity in the Myzus test (spray, Brassica pekinensis)",[3],good activity
same,Kill rate in % after 5 d,[3],100%
same,activity in the Phaedon test (spray treatment),[4],good activity
same,Kill rate in % after 7 d,[4],100%
same,activity in the Spodoptera frugiperda test (spray),[5],good activity
same,Kill rate in % after 7 d,[5],100%
same,activity in the Myzus test - oral,[6],good activity
same,Kill rate in % after 6 d,[6],100%
O=C1C(O)=C(c2ccccc2F)C(=O)N1C1CCCC(C(F)(F)F)C1 (stereo not shown) [Example 213],logP,[1],logP = 3.42^a)
same,activity in the Phaedon larvae test,[7],good activity
same,Kill rate in % after 7 d,[7]; 500 ppm,100%
O=C1C(O)=C(c2cc(F)cc(F)c2F)C(=O)N1C1CCCC(C(F)(F)F)C1 (stereo not shown) [Example 193],activity in the Phaedon test (spray treatment),[4],good activity
same,Kill rate in % after 7 d,[4],100%
same,logP,[1],logP = 3.42^a)
same,activity in the Tetranychus test,[8],good activity
same,Kill rate in % after 5 d,[8],90%
CC(C)C1CCCC(N2C(=O)C(O)=C(c3ccccc3Cl)C2=O)C1 (stereo not shown) [Example 195],activity in the Phaedon test (spray treatment),[4],good activity
same,Kill rate in % after 7 d,[4],100%
same,activity in the Spodoptera frugiperda test (spray),[5],good activity
same,Kill rate in % after 7 d,[5],100%
same,activity in the Myzus test - oral,[6],good activity
same,Kill rate in % after 6 d,[6],100%
CC(C)(C)C(=O)OC1=C(c2ccccc2Cl)C(=O)N(C2CCCCC2C(F)(F)F)C1=O (stereo not shown) [Example 206],"activity in the Myzus test (spray, Brassica pekinensis)",[3],good activity
same,Kill rate in % after 5 d,[3],90%
same,logP,[1],logP = 5.22^a)
O=C1C(O)=C(c2ccc(C(F)(F)F)cc2)C(=O)N1C1CCC(C(F)(F)F)CC1 (stereo not shown) [Example 211],logP,[1],logP = 4.28^a)
same,activity in the Phaedon larvae test,[7],good activity
same,Kill rate in % after 7 d,[7]; 500 ppm,90%
CC(C)(c1ccccc1)N1C(=O)C(O)=C(c2cccc(C(F)(F)F)c2)C1=O [Example 7],activity in the Phaedon larvae test,[7],good activity
same,Kill rate in % after 7 d,[7]; 1000 ppm,100%
CC(C)(C)C(=O)OC1=C(c2ccccc2Cl)C(=O)N(C2CCC(C(F)(F)F)CC2)C1=O (stereo not shown) [Example 207],"activity in the Myzus test (spray, Brassica pekinensis)",[3],good activity
same,Kill rate in % after 5 d,[3],100%
same,activity in the Phaedon test (spray treatment),[4],good activity
same,Kill rate in % after 7 d,[4],100%
same,logP,[1],logP = 5.31^a)
same,Kill rate in % after 5 d,[8],90%
O=C1C(O)=C(c2c(F)cccc2F)C(=O)N1C1CCC(C(F)(F)F)CC1 (stereo not shown) [Example 209],activity in the Phaedon larvae test,[7],good activity
same,Kill rate in % after 7 d,[7]; 500 ppm,100%
Cc1ccccc1C1=C(O)C(=O)N(C2CC(C(F)(F)F)CC(C(F)(F)F)C2)C1=O (stereo not shown) [Example 216],logP,[1],logP = 3.85^a)
same,activity in the Phaedon larvae test,[7],good activity
same,Kill rate in % after 7 d,[7]; 500 ppm,100%
CC(C)N1C(=O)C(O)=C(c2cccc(C(F)(F)F)c2)C1=O [Example 6],activity in the Phaedon larvae test,[7],good activity
same,Kill rate in % after 7 d,[7]; 1000 ppm,100%
O=C1C(O)=C(c2ccccc2Br)C(=O)N1C1CCCC(C(F)(F)F)C1 (stereo not shown) [Example 218],"activity in the Myzus test (spray, Brassica pekinensis)",[3],good activity
same,Kill rate in % after 5 d,[3],80%
same,activity in the Phaedon test (spray treatment),[4],good activity
same,Kill rate in % after 7 d,[4],100%
same,activity in the Spodoptera frugiperda test (spray),[5],good activity
same,Kill rate in % after 7 d,[5],100%
CCOCOC1=C(c2ccccc2Cl)C(=O)N(C2CCCC(C(F)(F)F)C2)C1=O (stereo not shown) [Example 202],"activity in the Myzus test (spray, Brassica pekinensis)",[3],good activity
same,Kill rate in % after 5 d,[3],80%
same,activity in the Phaedon test (spray treatment),[4],good activity
same,Kill rate in % after 7 d,[4],100%
same,activity in the Spodoptera frugiperda test (spray),[5],good activity
same,Kill rate in % after 7 d,[5],100%
same,logP,[1],logP = 4.53^a)
same,activity in the Tetranychus test,[8],good activity
same,Kill rate in % after 5 d,[8],80%
O=C1C(O)=C(c2cc(Cl)cc(Cl)c2)C(=O)N1c1ccc(Cl)cc1 [Example 11],logP,[1],logP = 3.27^a)
same,activity in the Spodoptera frugiperda test (leaf dip),[2],good activity
same,Kill rate in % after 7 d,[2],100%
CC1CCCC(N2C(=O)C(O)=C(c3ccccc3Cl)C2=O)C1 (stereo not shown) [Example 196],activity in the Phaedon test (spray treatment),[4],good activity
same,Kill rate in % after 7 d,[4],100%
same,activity in the Spodoptera frugiperda test (spray),[5],good activity
same,Kill rate in % after 7 d,[5],100%
same,logP,[1],logP = 3.57^a)
same,activity in the Myzus test - oral,[6],good activity
same,Kill rate in % after 6 d,[6],100%
O=C1C(O)=C(c2ccc(OC(F)(F)F)cc2)C(=O)N1c1ccc(C(F)(F)F)cc1 [Example 12],logP,[1],logP = 3.97^a)
same,activity in the Spodoptera frugiperda test (leaf dip),[2],good activity
same,Kill rate in % after 7 d,[2],100%
O=C1C(O)=C(c2ccccc2Cl)C(=O)N1C1CCCCC1C(F)(F)F (stereo not shown) [Example 205],activity in the Phaedon test (spray treatment),[4],good activity
same,Kill rate in % after 7 d,[4],100%
same,logP,[1],logP = 3.27^a)
same,Kill rate in % after 6 d,[6],100%
CC(C)(C)C(=O)OC1=C(c2ccccc2I)C(=O)N(C2CCCC(C(F)(F)F)C2)C1=O (stereo not shown) [Example 221],"activity in the Myzus test (spray, Brassica pekinensis)",[3],good activity
same,Kill rate in % after 5 d,[3],100%
same,activity in the Phaedon test (spray treatment),[4],good activity
same,Kill rate in % after 7 d,[4],100%
same,activity in the Tetranychus test,[8],good activity
same,Kill rate in % after 5 d,[8],80%
Cc1cc(C)c(C2=C(O)C(=O)N(Cc3ccccc3)C2=O)c(C)c1 [Example 5],activity in the Phaedon larvae test,[7],good activity
same,Kill rate in % after 7 d,[7]; 1000 ppm,100%
O=C1C(O)=C(c2cc(Cl)cc(Cl)c2)C(=O)N1C1CCC(C(F)(F)F)CC1 (stereo not shown) [Example 212],activity in the Phaedon test (spray treatment),[4],good activity
same,Kill rate in % after 7 d,[4],100%
same,activity in the Spodoptera frugiperda test (spray),[5],good activity
same,Kill rate in % after 7 d,[5],100%
same,logP,[1],logP = 4.48^a)
same,activity in the Phaedon larvae test,[7],good activity
same,Kill rate in % after 7 d,[7]; 500 ppm,100%
same,activity in the Spodoptera frugiperda test (leaf dip),[2],good activity
same,Kill rate in % after 7 d,[2],100%
O=C1C(O)=C(c2c(Cl)cc(C(F)(F)F)cc2Cl)C(=O)N1C1CCCC(C(F)(F)F)C1 (stereo not shown) [Example 191],activity in the Phaedon test (spray treatment),[4],good activity
same,Kill rate in % after 7 d,[4],100%
same,logP,[1],logP = 4.05^a)
same,activity in the Tetranychus test,[8],good activity
same,Kill rate in % after 5 d,[8],90%
O=C1C(O)=C(c2ccc(OC(F)(F)F)cc2)C(=O)N1c1ccc(OC(F)(F)F)cc1 [Example 9],logP,[1],logP = 4.12^a)
same,activity in the Phaedon larvae test,[7],good activity
same,Kill rate in % after 7 d,[7]; 500 ppm,90%
O=C1C(O)=C(c2ccccc2Cl)C(=O)N1C1CCC(C(F)(F)F)CC1 (stereo not shown) [Example 210],logP,[1],logP = 3.59^a)
same,activity in the Phaedon larvae test,[7],good activity
same,Kill rate in % after 7 d,[7]; 500 ppm,100%
